From patent publication US12121510B2 (Cedars-Sinai Medical Center, priority 2016, dated 2024)
Like-named read-outs stand apart in the source and are kept apart here.

Tests used:
22Rv1 = assay: Cancer cell growth IC50 (crystal violet); type: cell-based, human; conditions: Homo sapiens, Example 13, 72 h
Excerpt: (§1) Exemplary Embodiments are generally performed as follows, unless otherwise noted. Simvastatin is purchased from Ark Pharm, Inc. (Arlington Heights, IL). Cisplatin (CIS) is purchased from MedKoo Biosciences, Inc. (Chapel Hill, NC). Dihydroartemisinin is purchased from TCI America (Portland, OR). All other chemicals and reagents are purchased from standard sources such as Sigma-Aldrich and/or VWR and are of highest quality available. Puromycin dihydrochloride was purchased from Alfa Aesar (Tewksbury, MA). Deionized water ([…]) used for making solutions is obtained from Milli-Q Direct Ultrapure Water System from Millipore (Billerica, MA, USA). All intermediates are characterized by 1H NMR and mass analysis and the purity of compounds are analyzed by HPLC. 1H NMR data are collected on Bruker 400 MHz spectrometers using standard parameters; chemical shifts are reported in ppm (δ) in reference to residual non-deuterated solvent. ESI mass spectroscopy analysis is performed using a Thermo Fisher LTQ Orbitrap Elite system. IC50 is the half maximal inhibitory concentration and determined is determined by crystal violet assay unless otherwise noted.
(§2) The crystal violet assay is performed as follows, unless otherwise noted. Cell lines are supplemented with RPMI 1640 medium, 10% fetal bovine serum, 1% PenStrep, and placed in a humidified atmosphere containing 5% CO2 at 37° C. 5,000 cells/well renal cancer cells and 10,000 cells/well lymphoma cells are seeded in 96 well plates in 100 microliter medium/per well for 24 h. […] Renal cancer cells are fixed with 3.7% paraformaldehyde for 15 minutes and are stained with Crystal violet solution (0.5% in 25% methanol) for 30 minutes. After rinsing with water cell layers are dried and decolorized with Sorenson citrate with shaking for 20 minutes. Light absorption of the extracted supernatant is read at 595 nm. Lymphoma cell growth was evaluated using MTT and cells are incubated for 4 hours. 100 microliters of isopropanol is added, and the extracted supernatant fraction is read at absorption maximum of 595 nm. […]

[1] = tested on: Ramos, a B-cell lymphoma, cultured as 3-D spheroids; assay: Cell viability IC50 in 3-D spheroids; type: cell-based, human; conditions: Homo sapiens; Ramos 3-D spheroids; 72 h; single agent
Excerpt: as §1
Cancer cells were Ramos, a B-cell lymphoma, cultured as 3-D spheroids, cultured according to their standard culturing conditions.

MCF-7 = assay: Cancer cell growth IC50 (crystal violet); type: cell-based; conditions: Homo sapiens, MCF7, Example 13, 72 h
Excerpt: as §1
(§3) The crystal violet assay is performed as follows, unless otherwise noted. Cell lines are supplemented with RPMI 1640 medium, 10% fetal bovine serum, 1% PenStrep, and placed in a humidified atmosphere containing 5% CO2 at 37° C. 5,000 cells/well renal cancer cells and 10,000 cells/well lymphoma cells are seeded in 96 well plates in 100 microliter medium/per well for 24 h. […] Renal cancer cells are fixed with 3.7% paraformaldehyde for 15 minutes and are stained with Crystal violet solution (0.5% in 25% methanol) for 30 minutes. After rinsing with water cell layers are dried and decolorized with Sorenson citrate with shaking for 20 minutes. Light absorption of the extracted supernatant is read at 595 nm. Lymphoma cell growth was evaluated using MTT and cells are incubated for 4 hours. 100 microliters of isopropanol is added, and the extracted supernatant fraction is read at absorption maximum of 595 nm.
(§4) Standard cell culture conditions typically are RPMI 1640 medium, 10% fetal bovine serum, 1% PenStrep, and are performed in a humidified atmosphere containing 5% CO2 at 37° C. Generally, 5,000 cells/well-10,000 cells/well are seeded in 96 well plates in 100 microliter medium/per well for 24 h, or as described in Example 16, unless otherwise noted. Certain cells require specialized media, growth factors, antibiotics, or culture condition adjustments, as will be apparent to a person of ordinary skill in the art.

C4-2 = assay: Cancer cell growth IC50 (crystal violet); type: cell-based; conditions: C4-2; Example 13; C42; 72 h
Excerpt: as §1, §3, §4

C4-2B = assay: Cancer cell growth IC50 (crystal violet); type: cell-based
Excerpt: as §1, §3, §4

PC3 = assay: Cancer cell growth IC50 (crystal violet); type: cell-based; conditions: Homo sapiens, PC-3, Example 13, 72 h
Excerpt: as §1, §3, §4

PC3M = assay: Cancer cell growth IC50 (crystal violet); type: cell-based; conditions: Homo sapiens, PC-3M, Example 13, 72 h
Excerpt: as §1, §3, §4

U87 = assay: Cancer cell growth IC50 (crystal violet); type: cell-based; conditions: Homo sapiens, U-87 MG, Example 13, 72 h
Excerpt: as §1, §3, §4

LNCaP = assay: Cancer cell growth IC50 (crystal violet); type: cell-based; conditions: Homo sapiens, Example 13, 72 h
Excerpt: as §1, §3, §4

ARCaP-E = assay: Cancer cell growth IC50 (crystal violet); type: cell-based; conditions: Example 13, 72 h
Excerpt: as §1, §3, §4

MIAPaCa II = assay: Cancer cell growth IC50 / sensitization (crystal violet); type: cell-based; conditions: MIA PaCa-2, Example 13, 72 h
Excerpt: as §1, §2

Ramos = assay: Lymphoma cell growth IC50 (MTT); type: cell-based, human; conditions: Homo sapiens, Example 13, 72 h, read-out: IC50
Excerpt: as §1, §3, §4
(§5) Cell lines are cultured as follows. […] 5,000 cells/well renal cancer cells and 10,000 cells/well lymphoma cells are seeded in 96 well plates in 100 microliter medium/per well for 24 h. […] Renal cancer cells are fixed with 3.7% paraformaldehyde for 15 minutes and are stained with Crystal violet solution (0.5% in 25% methanol) for 30 minutes. After rinsing with water cell layers are dried and decolorized with Sorenson citrate with shaking for 20 minutes. Light absorption of the extracted supernatant is read at 595 nm. Lymphoma cell growth is evaluated using MTT and cells are incubated for 4 hours. 100 microliters of isopropanol is added, and the extracted supernatant fraction is read at absorption maximum of 595 nm.

Namalwa = assay: Lymphoma cell growth IC50 (MTT); type: cell-based, human; conditions: Homo sapiens
Excerpt: as §1, §3, §4, §5

Raji = assay: Lymphoma cell growth IC50 (MTT); type: cell-based, human; conditions: Homo sapiens, Example 13, 72 h, read-out: IC50
Excerpt: as §1, §3, §4, §5

Daudi = assay: Lymphoma cell growth IC50 (MTT); type: cell-based, human; conditions: Homo sapiens, Example 13, 72 h, read-out: IC50
Excerpt: as §1, §3, §4, §5

CTC 752-S-1 = assay: Circulating tumor cell growth IC50 / sensitization; type: cell-based, human; conditions: Homo sapiens
Excerpt: as §1, §4
Pancreatic cancer cells are cultured for 72 hours in vitro and exposed to the conventional chemotherapeutic drugs Gemcitabine (GEM) and Paclitaxel (PAC), known to inhibit pancreatic cancer growth in patients. GEM (or PAC) alone are compared to a combination with SIM, or a combination with DZ-SIM. […] Representative results are illustrated in the graphs in FIG. 3.
Cells are cultured according to their standard culturing conditions, and IC50s are determined as described herein-above.
Representative results of the determined IC50s are shown in the table below for the indicated cancer cells cultured in vitro, including CTCs (C752-S-1), B-Cell Lymphoma (Namalwa), prostate cancer cells (C4-2B), and renal cancer cells (Caki-1). The cells are cultured according to their standard culturing conditions, and IC50s are determined as described herein-above.

Caki-1 = assay: Renal cancer cell growth IC50 (crystal violet); type: cell-based, human; conditions: Homo sapiens, Caki-1, read-out: IC50
Excerpt: as §1, §3, §4, §5

22Rv1 tumors = assay: Prostate tumor xenograft growth; type: in vivo, mice; conditions: IP twice per week, 37 days; SIM 1.1 mg/kg, DZ-SIM 5.5 mg/kg, DT 8 mg/kg
Experimental: A human prostate tumor xenograft model, 22Rv1 in immune compromised mice, is employed as follows. 1×10^6 freshly harvested cells of a cultured human prostate carcinoma cell line, 22Rv1, are inoculated s.q. in mice. Mice bearing 22Rv1 tumors (10 tumors/group) are randomized into 7 groups on day-1, and administered drugs by IP (intraperitoneally) at the next day (day-2), and subsequently twice per week, using the following drugs and dosages: a control/vehicle (V, i.e. no drug), DZ (5 μM or 3.9 mg/kg, calculated based on the body weight of mice which averaged 20 grams), SIM (5 μM or 1.1 mg/kg), DZ-SIM (5 μM or 5.5 mg/kg), docetaxel (DT, 8 mg/kg), SIM+DT (drug doses as indicated), and DZ-SIM+DT (drug doses as indicated). Administration is continued for a total of 37 days, and tumor volumes are measured at the indicated times (see FIG. 4). […] Thus therapeutically resistant prostate tumors can be rendered sensitive by DZ-SIM but not SIM.

`CCC(C)(C)C(=O)O[C@H]1C[C@@H](C)C=C2C=C[C@H](C)[C@H](CC[C@@H]3C[C@@H](O)CC(=O)O3)[C@H]21` [SIM, Simvastatin] was tested, and the IC50 (22Rv1) was 3.52 µM, the IC50 [1] was 13 µM and the IC50 (MCF-7) was 2.69 µM. It also gave an IC50 (C4-2) of 7.73 µM, an IC50 (C4-2B; Example 13, 72 h) of 1.88 µM and an IC50 (PC3) of 0.991 µM. The IC50 (PC3M) was 0.248 µM, the IC50 (U87) was 0.506 µM and the IC50 (LNCaP) was 3.76 µM. For the same compound, the IC50 (ARCaP-E) was 5.61 µM, the IC50 (MIAPaCa II) was 0.592 µM and the IC50 (Ramos) was 13 µM. It also gave an IC50 (Namalwa; Example 13, 72 h, read-out: IC50) of 13.4 µM, an IC50 (Raji) of 32.5 µM and an IC50 (Daudi) of 15 µM.

With `C[C@@H]1CC[C@H]2[C@@H](C)C(=O)O[C@@H]3O[C@@]4(C)CC[C@@H]1[C@]32OO4` [ART, Artemisinin] the IC50 (CTC 752-S-1; Example 22, CTC 752-S-1, 3D cultured tumor spheroids) was > 64 µM, the IC50 (C4-2B; Example 22) was 0.657 µM and the IC50 (Caki-1; Example 22) was > 64 µM. The IC50 (Namalwa; Example 22, read-out: IC50) was > 64 µM.

Work on `COc1cccc2c1C(=O)c1c(O)c3c(c(O)c1C2=O)C[C@@](O)(C(=O)CO)C[C@@H]3O[C@H]1C[C@H](N)[C@H](O)[C@H](C)O1` [Doxorubicin] yielded an IC50 (CTC 752-S-1; Example 23, CTC 752-S-1) of 1.82 µM, an IC50 (C4-2B; Example 23) of 0.0431 µM and an IC50 (Caki-1; Example 23) of 0.88 µM. It also gave an IC50 (Namalwa; Example 23, read-out: IC50) of 0.666 µM.

`COc1ccc(C[C@H](NC(=O)CCCCCN2/C(=C/C=C3\CCCC(/C=C/C4=[N+](CCCCS(=O)(=O)[O-])c5ccccc5C4(C)C)=C3Cl)C(C)(C)c3ccccc32)C(=O)NC2C(CO)OC(n3cnc4c(N(C)C)ncnc43)C2O)cc1` (stereo partly shown) [DZ-Puromycin] was tested, and the IC50 (CTC 752-S-1; Example 23, CTC 752-S-1) was 31.4 µM, the IC50 (C4-2B; Example 23) was 1.32 µM and the IC50 (Caki-1; Example 23) was > 64 µM. The IC50 (Namalwa; Example 23, read-out: IC50) was 22.4 µM.

With `CC(=O)O[C@@]12CO[C@@H]1C[C@H](O)[C@@]1(C)C(=O)[C@H](O)C3=C(C)[C@@H](OC(=O)[C@H](O)[C@@H](NC(=O)OC(C)(C)C)c4ccccc4)C[C@@](O)([C@@H](OC(=O)c4ccccc4)[C@H]21)C3(C)C` [DT, Docetaxel] the “Growth of 22Rv1 tumors in vivo (tumor volume)” value (22Rv1 tumors) was “ineffective”.
